Measured values: US20060199866A1, “Combination of desoxypeganine and mecamylanine for the treatment of alcohol abuse” (priority 2003, published 2006)

How the values were obtained:
monoamine oxidase A = target: T1, monoamine oxidase A (Homo sapiens, UniProt P21397); conditions: cited from earlier work
T1 sequence (P21397 1-527): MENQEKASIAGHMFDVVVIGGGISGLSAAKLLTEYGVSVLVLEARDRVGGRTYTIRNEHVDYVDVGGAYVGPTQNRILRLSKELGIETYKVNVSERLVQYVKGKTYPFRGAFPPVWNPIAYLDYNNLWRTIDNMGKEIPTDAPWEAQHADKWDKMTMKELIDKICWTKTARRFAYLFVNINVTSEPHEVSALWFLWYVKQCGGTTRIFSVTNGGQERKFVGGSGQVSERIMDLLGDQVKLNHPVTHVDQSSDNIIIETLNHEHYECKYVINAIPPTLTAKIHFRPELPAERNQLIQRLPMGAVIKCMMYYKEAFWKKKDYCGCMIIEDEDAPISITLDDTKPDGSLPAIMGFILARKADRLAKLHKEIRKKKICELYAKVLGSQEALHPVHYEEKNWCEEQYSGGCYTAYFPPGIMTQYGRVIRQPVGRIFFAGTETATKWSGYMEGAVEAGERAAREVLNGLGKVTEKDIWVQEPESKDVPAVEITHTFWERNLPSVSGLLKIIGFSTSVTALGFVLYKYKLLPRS

female AA rats = assay: Reduction of alcohol consumption and alcohol preference in alcohol-preferring AA rats (free choice between water and 10% v/v ethanol); assay type: in vivo, rat; conditions: for Alcohol solution consumed: 10% aqueous ethanol
From the text: The “AA” strain of rats, bred in Finland, has a genetically determined preference for alcohol, which means that even without pre-treatment with alcohol the animals, when given free choice, prefer alcohol-containing liquids, to alcohol-free liquids to satisfy their fluid requirement. This strain has therefore been used in numerous studies on the pharmacology of alcohol and is extremely well characterized.
Female AA rats (tested for alcohol preference and made available by the Public Health Institute in Helsinki) were housed individually and had free access to standard feed (Altromin 1324 granulate), the ambient temperature was 24±1° C. and the light-dark change was 12/12 hours (the dark period lasting from 6 p.m. to 6 a.m. Each cage contained two identical drinking bottles, of which one contained pure water and the other contained aqueous ethanol (10% v/v). During the 12-hour dark period the animals had access to the drinking bottles and during this period had free choice between the two solutions. To prevent the animals from becoming accustomed to a particular position in the cage, the positions of the bottles were changed daily. Prior to start of the tests, the animals were granted an adaptation phase until a largely constant alcohol and water consumption was ensured.
Deoxypeganine hydrochloride (called “DOP” in the following) was obtained from the Institute for the Pharmacology of Plants (Taschkent, Usbekistan) and supplied by the firm of LTS Lohmann Therapie-Systeme (Andemach, Germany) after checking for identity and purity. Mecamylamine was obtained as a commercial preparation from Sigma-Aldrich GmbH (Munich).
Treatment of the test animals always took place immediately prior to the start of the dark period. Mecamylamine was dissolved in 0.9% aqueous saline and a volume of 5 ml/kg body weight was administered by intraperitoneal injection. DOP was applied as an aqueous solution with a volume of 10 ml/kg by a probang.
In the case of combination treatments, this administration took place within a period of less than 10 minutes. Two treatment-free days were always interposed prior to and following the treatment days.
The parameters recorded were consumption of alcohol, consumption of water and consumption of feed (each in grams), as well as alcohol preference, calculated using the formula: [formula]
The target parameters were in each case traced during the 12 hours of the dark period following treatment, intermediate results were recorded after the first 4 hours and final results after 12 hours. Statistical evaluation of the test data was performed using the t-test for dependent values. The results in respect of consumption of alcohol and alcohol preference are summarized in FIGS. 1 and 2 as well as in Tables 1 and 2.

[1] = system: neuronal nicotinic acetylcholine receptors (NACHRs); conditions: in pharmacologically relevant concentrations; cited from earlier work
[2] = cited from earlier work
healthy probands = conditions: administered two hours prior to consumption of alcoholic beverages; cited from earlier work
[3] = system: extracellular dopamine concentration in the nucleus accumbens; conditions: nucleus accumbens of the rat; baseline dopamine release not impaired; cited from earlier work
[4] = Trial 1, DOP 20 mg/kg p.o., After 4 hours
[5] = Trial 1, DOP 20 mg/kg p.o., After 8 hours (subsequent eight hours)
[6] = Trial 1, DOP 20 mg/kg p.o., Total (12 hours)
[7] = Trial 2, DOP 20 mg/kg p.o., After 4 hours
[8] = Trial 2, DOP 20 mg/kg p.o., After 8 hours (subsequent eight hours)
[9] = Trial 2, DOP 20 mg/kg p.o., Total (12 hours)
[10] = Trial 2, Mec 1 mg/kg i.p., After 4 hours
[11] = Trial 2, Mec 1 mg/kg i.p., After 8 hours (subsequent eight hours)
[12] = Trial 2, Mec 1 mg/kg i.p., Total (12 hours)

For `c1ccc2c(c1)CN1CCCC1=N2` [DOP, 1,2,3,9-tetrahydropyrrollo[2,1-b]chinazoline], the “Inhibition of monoamine oxidase A” value (monoamine oxidase A) is listed as “inhibits monoamine oxidase A”, the Alcohol solution consumed (female AA rats; [4]) is listed as 5.2 ± 0.6 gram and the Alcohol solution consumed (female AA rats; [5]) is listed as 10.2 ± 0.6 gram. It also gave an Alcohol solution consumed (female AA rats; [6]) of 15.4 ± 1.1 gram, an Alcohol solution consumed (female AA rats; [7]) of 5.8 ± 0.6 gram and an Alcohol solution consumed (female AA rats; [8]) of 10.7 ± 0.5 gram. The Alcohol solution consumed (female AA rats; [9]) was 16.6 ± 0.6 gram, the “Effect on consumption of alcohol and alcohol preference” value (“Effect on consumption” for short) (female AA rats; DOP 20 mg/kg p.o., preferably within the first 4 hours after administration) was “lowered the consumption of alcohol and alcohol preference” and the Alcohol preference (female AA rats; [4]) was 57.4 ± 7.1%. It also gave an Alcohol preference (female AA rats; [5]) of 82.0 ± 4.0%, an Alcohol preference (female AA rats; [6]) of 70.5 ± 4.5% and an Alcohol preference (female AA rats; [7]) of 55.6 ± 7.6%. For the same molecule, the Alcohol preference (female AA rats; [8]) was 88.0 ± 2.1%, the Alcohol preference (female AA rats; [9]) was 72.7 ± 4.3% and the “Binding to NACHRs” value [1] was “does not bind to NACHRs”.

In the case of `O=C1CC[C@@]2(O)[C@H]3Cc4ccc(O)c5c4[C@@]2(CCN3CC2CC2)[C@H]1O5` [naltrexone], the Oral bioavailability [2] is given as “approx. 5%”.

In the case of `CNC1(C)C2CCC(C2)C1(C)C` (racemic) [Mec, reference compound], the Oral bioavailability [2] is listed as ~100%, the “Effect on the centrally stimulating psychotropic effect of alcohol” value (healthy probands) is listed as “reduced the centrally stimulating psychotropic effect” and the “Blockade of alcohol-induced increase in extracellular dopamine concentration” value [3] is listed as “completely blocks”. For the same molecule, the Alcohol solution consumed (female AA rats; [10]) was 5.4 ± 0.5 gram, the Alcohol solution consumed (female AA rats; [11]) was 10.1 ± 0.4 gram and the Alcohol solution consumed (female AA rats; [12]) was 15.5 ± 0.5 gram. The “Effect on consumption” value (female AA rats; Mecamylamine 1 mg/kg i.p. administered singly) was “no effect”, the “Effect on consumption” value (female AA rats; Mecamylamine 1 mg/kg i.p. combined with DOP 20 mg/kg p.o.) was “potentiated the effect of DOP on both parameters” and the Alcohol preference (female AA rats; [10]) was 85.3 ± 4.2%. For the same molecule, the Alcohol preference (female AA rats; [11]) was 87.8 ± 3.1%, the Alcohol preference (female AA rats; [12]) was 86.3 ± 2.6% and the “Effect on consumption” value (female AA rats; mecamylamine 0.5 mg/kg i.p. combined with DOP 20 mg/kg p.o.) was “without effect with regard to alcohol”. The “Effect on consumption” value (female AA rats; mecamylamine 0.75 mg/kg i.p. combined with DOP 20 mg/kg p.o.) was “without effect with regard to alcohol” and the “Effect on consumption” value (female AA rats; mecamylamine dosage increased to 1.5 mg/kg i.p., combined with DOP 20 mg/kg p.o.) was “potentiating effect could not be increased further”.
